Data: patent publication US12371438B2, “Ginkgolide B derivative and salt thereof, preparation method therefor and use thereof” (HUILING JINXIN (SHANGHAI) PHARMACEUTICAL TECHNOLOGY CO., LTD, priority 2019, dated 2025)
Entries after “also recorded” stand apart in the source; their conditions may differ. Like-named read-outs stand apart in the source and are kept apart here.

Columns and labels:
platelet aggregation = experiment: In vitro anti-platelet aggregation activity evaluation (PAF-induced, platelet-rich plasma); format: cell-based, New Zealand white rabbits; settings: for inhibitory effect on platelet aggregation in vitro (in words): 1 μM, compared with Ginkgolide B; for activity at 1 µM: Oryctolagus cuniculus, Platelet, read-out: Platelet aggregation rate (%, 1 μM)
Procedure: Experimental method: New Zealand white rabbits were anesthetized with sodium pentobarbital (2%, 2 mL/kg), about 40 mL of blood was obtained by abdominal aortic puncture, and the supernatant was collected as platelet-rich serum (PRP) after centrifugation at 1000 rpm/min for 10 min, the remaining blood was centrifuged at 4000 rpm/min for 10 min, and the supernatant was collected as platelet-poor serum (PPP); blank control group: 100 μL PRP+100 μL normal saline; drug group: 100 μL PRP+100 μL 0.05% DMSO dissolved drug (Ginkgolide B was positive control group), and the final drug concentration was 1 μM.

[1] = system: platelet aggregation in SD rats; experiment: Anticoagulant activity in SD rats (ADP-induced maximum platelet aggregation rate after gavage); format: in vivo; settings: for Average maximum platelet aggregation rate (%): 50 mg/kg by gavage once a day for 3 days, ADP inducer, PAGM within 5 min; for anti-aggregation activity on platelet aggregation in SD rats (in words): 50 mg/kg, n=10, compared with Ginkgolide B
Procedure: Experimental method: Rats were randomly divided into 10 rats in each group, and each group was given the corresponding test drug (50 mg/kg) by gavage after weighing, once a day for 3 days.
150 μL of PRP in each group was sucked and added to the 96-well plate (adjusted to zero by PPP), and ADP inducer was added, the absorbance value A1 was measured at the wavelength of 650 nm in the microplate reader, which was the absorbance value of each group at 0 min; the oscillation mode of the microplate reader was turned on, and the absorbance value A2 was detected again after 5 min, which was the absorbance value of each group at 5 min. Since the addition of ADP would cause platelet aggregation and change the light permeability, the maximum platelet aggregation rate (PAGM) within 5 min was measured according to this principle. Maximum platelet aggregation rate(PAGM)=(A1−A2)/A1×100

[2] = system: acute cerebral ischemia in SD rats; experiment: Anti-acute cerebral ischemia activity (middle cerebral artery electrocoagulation, TTC staining); format: in vivo
Procedure: At this time, a relatively straight blood vessel with few branches can be seen through the dura mater, that is, the middle cerebral artery. […] The temporal muscle and skin were sutured in turn, and then the rat was administered by gavage (50 mg/kg). After the rats were awakened, they were put back into their cages and continued to be reared for 24 h.
The brain slices were stained in 1% TTC dye solution (incubated at 37° C. in the dark for about 5-10 min), the infarcted area of brain slices after staining was white, while the non-infarcted area was rose red; after staining was completed, the brain slices were moved to 10% formaldehyde solution and kept away from light for 24 hours, finally, a digital camera was used to take pictures, the areas of frontal and reverse infarcted areas and non-infarcted areas were measured by image analysis software (ImageJ, version: 1.4.3.67), and the ratio of infarcted areas in the total infarcted cerebral hemisphere was calculated.

[3] = 1 μM drug, PAF-induced, rabbit PRP, corrected to blank = 100, n=5
[4] = SD rats, 50 mg/kg by gavage after occlusion, 24 h, n=10
[5] = SD rats, 50 mg/kg, n=10, compared with model group / Ginkgolide B, 50 mg/kg
[6] = SD rats, 50 mg/kg by gavage after occlusion, 24 h, n=10, 50 mg/kg

| Compound | Platelet aggregation rate (%, 1 μM) (platelet aggregation; [3]) [%] | inhibitory effect on platelet aggregation in vitro (in words) (platelet aggregation) | Average maximum platelet aggregation rate (%) ([1]; n=10) | other results |
| --- | --- | --- | --- | --- |
| 2-(Ginkgolide B-10-oxy) n-pentylamine Acetate [Embodiment 17] | 21.90 | significant activity | 34.20 | Average area ratio of hemicerebral infarction (%) [2, 4]: 25.31% |
| 2-(Ginkgolide B-10-oxy) pyrrolidine Acetate [Embodiment 18] | 26.45 |  |  |  |
| 2-(Ginkgolide B-10-oxy)ammonium Acetate [Embodiment 11] | 56.53 |  |  |  |
| 2-(Ginkgolide B-10-oxy)arginine Acetate [Embodiment 13] | 15.66 | significant activity | 21.25 | anti-aggregation activity on platelet aggregation in SD rats (in words) [1]: particularly significant (P<0.001); Average area ratio of hemicerebral infarction (%) [2, 4]: 20.14%; activity for reducing the area ratio of hemicerebral infarction in SD rats (in words) [2, 5]: particularly significant (P<0.001) |
| 2-(Ginkgolide B-10-oxy)diethylamine Acetate [Embodiment 16] | 28.87 |  |  |  |
| 2-(Ginkgolide B-10-oxy)histidine Acetate [Embodiment 14] | 19.74 | significant activity | 26.82 | anti-aggregation activity on platelet aggregation in SD rats (in words) [1]: particularly significant (P<0.001); Average area ratio of hemicerebral infarction (%) [2, 4]: 17.98%; activity for reducing the area ratio of hemicerebral infarction in SD rats (in words) [2, 5]: particularly significant (P<0.001) |
| 2-(Ginkgolide B-10-oxy)lysine Acetate [Embodiment 12] | 12.23 | significant activity | 22.65 | anti-aggregation activity on platelet aggregation in SD rats (in words) [1]: particularly significant (P<0.001); Average area ratio of hemicerebral infarction (%) ([2]; rat, in vivo, 50 mg/kg): 18.83%; activity for reducing the area ratio of hemicerebral infarction in SD rats (in words) ([2]; rat, in vivo, 50 mg/kg): particularly significant (P<0.001); also recorded: significantly better than Ginkgolide B and embodiment 10 |
| 2-(Ginkgolide B-10-oxy)morpholine Acetate [Embodiment 19] | 35.77 |  |  |  |
| 2-(Ginkgolide B-10-oxy)triethylamine Acetate [Embodiment 15] | 24.65 |  |  |  |
| 2-(Ginkgolide B-10-oxyethoxy)N-methyl-D-glucosamine Acetate [Embodiment 21] | 18.64 | significant activity | 29.35 | Average area ratio of hemicerebral infarction (%) [2, 4]: 22.66% |
| 2-(Ginkgolide B-10-oxyethoxy)sodium Acetate [Embodiment 20] | 45.32 |  |  |  |
| COC(=O)CO[C@H]1C(=O)O[C@H]2O[C@]34C(=O)OC5C[C@@H](C(C)(C)C)C21[C@@]53[C@@H](O)[C@@H]1OC(=O)C(C)[C@@]14O (some centres unmarked) [Embodiment 1, 10-O-(methoxyformylmethyl) Ginkgolide B] |  |  |  | activity at 1 µM (platelet aggregation): 30% |
| COC(=O)/C=C/CO[C@H]1C(=O)O[C@H]2O[C@]34C(=O)OC5C[C@@H](C(C)(C)C)C21[C@@]53[C@@H](O)[C@@H]1OC(=O)C(C)[C@@]14O (some centres unmarked) [Embodiment 2, 10-O-(methoxyformylallyl) Ginkgolide B] |  | significant activity | 32.60 | activity at 1 µM (platelet aggregation): 10.3%; Average area ratio of hemicerebral infarction (%) [2, 4]: 21.56% |
| CC1C(=O)O[C@H]2[C@H](O)[C@@]34C5C[C@@H](C(C)(C)C)C36[C@@H](OC(=O)[C@@H]6OCC(=O)OC(C)(C)C)O[C@@]4(C(=O)O5)[C@@]12O (some centres unmarked) [Embodiment 3, 10-O-(tert-butoxyformylmethyl) Ginkgolide B] |  |  |  | activity at 1 µM (platelet aggregation): 26.1% |
| COC(=O)COCCO[C@H]1C(=O)O[C@H]2O[C@]34C(=O)OC5C[C@@H](C(C)(C)C)C21[C@@]53[C@@H](O)[C@@H]1OC(=O)C(C)[C@@]14O (some centres unmarked) [Embodiment 4, 10-O-(methoxyformylmethoxyethyl) Ginkgolide B] |  |  |  | activity at 1 µM (platelet aggregation; [3]): 46.7% |
| COC(=O)COCCOCCO[C@H]1C(=O)O[C@H]2O[C@]34C(=O)OC5C[C@@H](C(C)(C)C)C21[C@@]53[C@@H](O)[C@@H]1OC(=O)C(C)[C@@]14O (some centres unmarked) [Embodiment 5, 10-O-(methoxyformylmethoxyethoxyethyl) Ginkgolide B] |  |  |  | activity at 1 µM (platelet aggregation): 39.3% |
| CC1C(=O)O[C@H]2[C@H](O)[C@@]34C5C[C@@H](C(C)(C)C)C36[C@@H](OC(=O)[C@@H]6OC/C=C/C(=O)O)O[C@@]4(C(=O)O5)[C@@]12O (some centres unmarked) [Embodiment 6, 4-(Ginkgolide B-10-oxy)-2-butenoic Acid] |  |  |  | activity at 1 µM (platelet aggregation; [3]): 45.7% |
| CC1C(=O)O[C@H]2[C@H](O)[C@@]34C5C[C@@H](C(C)(C)C)C36[C@@H](OC(=O)[C@@H]6OCC(=O)O)O[C@@]4(C(=O)O5)[C@@]12O (some centres unmarked) [Embodiment 7, 2-(Ginkgolide B-10-oxy)acetic Acid] | 17.66 | significant activity |  | Average maximum platelet aggregation rate (%) ([1]; n=10, 50 mg/kg): 35.20%; Average area ratio of hemicerebral infarction (%) [2, 6]: 25.14% |
| CC1C(=O)O[C@H]2[C@H](O)[C@@]34C5C[C@@H](C(C)(C)C)C36[C@@H](OC(=O)[C@@H]6OCCOCC(=O)O)O[C@@]4(C(=O)O5)[C@@]12O (some centres unmarked) [Embodiment 8, 2-(Ginkgolide B-10-oxyethoxy)acetic Acid] |  |  |  | activity at 1 µM (platelet aggregation; [3]): 23.7% |
| CC1C(=O)O[C@H]2[C@H](O)[C@@]34C5C[C@@H](C(C)(C)C)C36[C@@H](OC(=O)[C@@H]6OCCOCCOCC(=O)O)O[C@@]4(C(=O)O5)[C@@]12O (some centres unmarked) [Embodiment 9, 2-(Ginkgolide B-10-oxyethoxyethoxy)acetic Acid] |  |  |  | activity at 1 µM (platelet aggregation; [3]): 35% |
| CC1C(=O)O[C@H]2[C@H](O)[C@@]34C5C[C@@H](C(C)(C)C)C36[C@@H](OC(=O)[C@@H]6OCC(=O)O)O[C@@]4(C(=O)O5)[C@@]12O (some centres unmarked) [Embodiment 10, 2-(Ginkgolide B-10-oxy)sodium Acetate] | 39.34 |  |  | Average maximum platelet aggregation rate (%) ([1]; n=10, 50 mg/kg): 42.20%; Average area ratio of hemicerebral infarction (%) [2, 6]: 29.61% |
| CC1C(=O)OC2C(O)C34C5CC(C(C)(C)C)C36C(OC(=O)C6O)OC4(C(=O)O5)C12O (centres unmarked) [Ginkgolide B] | 63.42 |  | 39.57 | Average area ratio of hemicerebral infarction (%) [2, 4]: 26.12% |
